Data reported in patent US20240000786A1, “COMPOSITION FOR ENHANCING INTRA-CELLULAR NITRIC OXIDE GENERATION” (INSTITUTE OF LIFE SCIENCES, priority 2020, published 2024).
Peptide text beside a SMILES is read from it.

T1: iNOS-NOSIP protein interaction (Homo sapiens, UniProt Q9Y314)
T1 construct: made in house; host or cells: E. coli BL21 (DE3)
T1 sequence (Q9Y314 with tags, fused parts or gaps): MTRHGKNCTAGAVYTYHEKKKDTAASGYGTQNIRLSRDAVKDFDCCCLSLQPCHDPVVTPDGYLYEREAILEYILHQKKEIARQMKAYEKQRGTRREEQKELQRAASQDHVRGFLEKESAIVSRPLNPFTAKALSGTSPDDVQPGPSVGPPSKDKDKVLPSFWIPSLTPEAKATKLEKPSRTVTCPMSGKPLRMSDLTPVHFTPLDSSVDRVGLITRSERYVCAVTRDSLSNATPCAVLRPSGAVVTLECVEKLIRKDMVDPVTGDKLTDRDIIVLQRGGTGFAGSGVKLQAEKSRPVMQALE

T2: rNOSIP (Homo sapiens, UniProt Q9Y314)
T2 construct: made in house; host or cells: E. coli BL21 (DE3)
T2 sequence (Q9Y314 with tags, fused parts or gaps): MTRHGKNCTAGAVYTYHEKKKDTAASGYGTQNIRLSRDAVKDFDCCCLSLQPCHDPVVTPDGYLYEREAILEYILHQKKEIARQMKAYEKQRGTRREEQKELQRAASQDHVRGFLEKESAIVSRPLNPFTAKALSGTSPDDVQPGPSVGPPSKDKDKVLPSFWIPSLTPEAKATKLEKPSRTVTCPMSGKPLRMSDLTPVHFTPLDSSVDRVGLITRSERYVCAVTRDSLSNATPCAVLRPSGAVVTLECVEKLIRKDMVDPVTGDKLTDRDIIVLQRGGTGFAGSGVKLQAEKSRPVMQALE

T3: recombinant Nitric oxide synthase interacting protein (NOSIP)
T3 chain: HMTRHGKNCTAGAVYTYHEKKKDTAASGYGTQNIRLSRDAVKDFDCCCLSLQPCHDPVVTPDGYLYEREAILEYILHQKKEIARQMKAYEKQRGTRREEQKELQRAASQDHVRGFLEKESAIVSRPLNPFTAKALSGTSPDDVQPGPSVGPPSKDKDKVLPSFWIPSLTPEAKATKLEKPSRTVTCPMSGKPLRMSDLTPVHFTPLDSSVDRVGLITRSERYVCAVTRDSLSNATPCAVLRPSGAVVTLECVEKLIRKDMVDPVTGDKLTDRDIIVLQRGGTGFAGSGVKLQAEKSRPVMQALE


Experiments:
[1] = biological target: T1, iNOS-NOSIP protein interaction; assay: SPR: inhibition of rNOSIP association with immobilized recombinant iNOS by iNOS peptides / small molecules; type: binding; settings: for inhibition hierarchy of iNOS-NOSIP protein interaction: SPR, rank order; for kon / Kd: analyte rNOSIP alone or + peptide/small molecule, ligand r iNOS, 20° C.; for kon: 1:1 Langmuir, read-out: Ka; for inhibition of iNOS-NOSIP protein interaction by iNOS derived peptides: iNOS peptides 250 nM, proteins 125 nM, SPR (FIG. 2(a)); for Kd: Kd/Ka; for inhibition of binding of NOSIP with iNOS ligand by small molecules: rNOSIP 250 nM, small molecules 1 uM, SPR (FIG. 4)
Procedure: Four different iNOS peptides were synthesized commercially by China peptides and iNOS peptides were used for molecular interaction studies with immobilized recombinant iNOS purified protein. The iNOS peptides mediated inhibition of rNOSIP and riNOS protein association in Bio-Rad XPR 36 surface plasmon resonance biosensor instrument. […] 250 nM of iNOS peptides was used for inhibition assay with immobilized ligand(recombinant iNOS) in SPR analysis. Similar condition and concentration of small molecules were used for inhibition of recombinant protein association with immobilized ligand. […] The rNOSIP protein was incubated with iNOS derived peptide/small molecules for 30 minutes in ice for inhibition assay before the SPR application in our study. The molecular interaction was carried out at 20° C. and kinetic parameters were determined, after fitting the association and dissociation curves to a 1:1 (Langmuir)-binding model. An activated channel without immobilized ligand was used to evaluate nonspecific binding. The response curves were also recorded on control surfaces. Results were calculated after subtraction of the control values using the ProteOn Manager software.
The collected sensorgram data were processed by reference subtraction using double-referencing with the in-line blank buffer. The integrated ProteOn Manager software was used to fit the data with the Langmuir model describing a 1:1 binding stoichiometry. Ka is the association rate constant, Kd is the dissociation rate constant, and KD is the equilibrium dissociation constant, defined by the Kd/Ka ratio for the analytes-ligand binding.
The five small molecules bind with NOSIP and inhibit the association of recombinant NOSIP and recombinant iNOS. The rNOSIP protein was incubated with iNOS derived peptide or small molecules for 30 minutes in ice prior to SPR application. The molecular interaction was carried out at 20° C. and kinetic parameters were determined, after fitting the association and dissociation curves to a 1:1 (Langmuir)-binding model. An activated channel without immobilized ligand (recombinant iNOS) was used to evaluate nonspecific binding. The response curves were also recorded on control surfaces. Results were calculated after subtraction of the control values using the ProteOn Manager software.
The collected sensorgram data were processed by reference subtraction using double-referencing with the in-line blank buffer. The integrated ProteOn
Manager software was used to fit the data with the Langmuir model describing a 1:1 binding stoichiometry. Ka is the association rate constant, Kd is the dissociation rate constant, and KD is the equilibrium dissociation constant, defined by the Kd/Ka ratio for the analytes—ligand binding.

rNOSIP = biological target: T2, rNOSIP; assay: Isothermal titration calorimetry (ITC) of rNOSIP with small molecules / 18 mer iNOS peptide (PP2); type: binding; settings: for Fold Change (KD): ITC KD relative to iNOS-Peptide2 = 1; for SM binding affinity with NOSIP, hierarchy: ITC, rank order
Procedure: The 18 mer iNOS peptide (PP2) and small molecules were used for physical association of molecules in calorimetric analysis. The molecular association leads to thermodynamics changes such as Gibb's free energy change (ΔG), entropy change (ΔS), enthalpy change (ΔH) and number of binding sites (N) in interacting solution were investigated by isothermal calorimetry MICROCAL PEQ (Malvern) at 25° C. […] The experiment consisted of multiple injections and each injection contained 1.5 μl of binding solution (recombinant NOSIP solution) with 120 second spacing time between subsequent injections. Sequential titrations were carried out and the sample solution was continuously stirred at 270 rpm by the rotating paddle attached to the syringe needle. Multiple injections of NOSIP made into the sample cell containing interacting solution of peptide and small molecules. The titration curves were analyzed using the analysis software provided with the calorimeter.
The 18 mer iNOS peptide (PP2) and five small molecules were used to analyze physical association in calorimetric analysis. The molecular association leads to thermodynamics changes such as Gibb's free energy change (ΔG), entropy change (ΔS), enthalpy change (ΔH) and number of binding sites (N) in interacting solution were investigated by isothermal calorimetry MICROCAL PEQ (Malvern) at 25° C. […] The experiment consisted of multiple injections and each injection contained 1.5 μl of binding solution with 120 second spacing time between subsequent injections. Sequential titrations were carried out and the sample solution was continuously stirred at 270 rpm by the rotating paddle attached to the syringe needle. Multiple injections of NOSIP made into the sample cell containing interacting solution of peptide and small molecules. The titration curves were analyzed using the analysis software provided with the calorimeter.

[2] = biological target: T3, recombinant Nitric oxide synthase …
[3] = 10 μM iNOS peptide in the chamber, 150 μM rNOSIP in syringe, 25° C. (FIG. 3)
[4] = ITC 25° C., small molecule/peptide in cell, NOSIP in syringe

Row | Molecule | kon [1] [M⁻¹ s⁻¹] | ΔG (rNOSIP; ITC 25° C.) [kcal/mol] | ΔH (rNOSIP; ITC 25° C.) [kcal/mol] | −TΔS (rNOSIP; ITC 25° C.) [kcal/mol] | N (Sites) (rNOSIP; [4]) | Fold Change (KD) (rNOSIP) | inhibition of iNOS-NOSIP protein interaction by iNOS derived peptides [1] | Kd [1] [nM] | Kd (rNOSIP; [4]) [nM] | inhibition hierarchy of iNOS-NOSIP protein interaction [1] | SM binding affinity with NOSIP, hierarchy (rNOSIP) | inhibition of binding of NOSIP with iNOS ligand by small molecules [1] | further results
1 | CC[C@H](C)[C@H](NC(=O)[C@H](CCCCN)NC(=O)[C@H](C)NC(=O)[C@H](CCC(=O)O)NC(=O)[C@H](CCCCN)NC(=O)[C@H](Cc1ccccc1)NC(=O)[C@H](CO)NC(=O)CNC(=O)[C@H](Cc1ccc(O)cc1)NC(=O)[C@H](Cc1ccc(O)cc1)NC(=O)[C@H](CCC(N)=O)NC(=O)[C@@H](N)CC(N)=O)C(=O)N[C@@H](CCC(=O)O)C(=O)N[C@@H](CCC(=O)O)C(=O)N[C@@H](Cc1c[nH]cn1)C(=O)N[C@@H](CC(C)C)C(=O)N[C@@H](C)C(=O)N[C@@H](CCCNC(=N)N)C(=O)O [iNOS-Peptide2] (H-NQYYGSFKEAKIEEHLAR-OH; N-terminus and C-terminus assumed) | 536 | -8.54 | -8.44 ± 0.271 | -0.10 | 1.09 | 1 |  |  |  | CC4>CC11>CC6>CC5>CC13>iNOS Peptide 2 | CC4>CC11>CC6>CC5>CC13>Peptide 2 (iNOS) |  | Fold Change (KD) ([1]; SPR KD relative to rNOSIP + iNOS peptide2 = 1): 1; inhibition of iNOS-NOSIP protein interaction by iNOS derived peptides ([1]; listed as PP2): inhibited; inhibition of iNOS-NOSIP protein interaction by iNOS derived peptides ([1]; listed as PP-2): block significantly interaction between recombinant iNOS and NOSIP; Kd (rNOSIP; [3]): 493 ± 63.2 nM; ΔG (rNOSIP; [3]): -8.61 kcal/mol; ΔH (rNOSIP; [3]): -9.07 ± 0.251 kcal/mol; −TΔS (rNOSIP; [3]): 0.459 kcal/mol
2 | Cc1ccc(-c2nnn(CC(=O)N(Cc3ccco3)C(C(=O)NC(C)(C)C)c3ccc(O)cc3)n2)cc1 (stereo not shown) [MCULE-8469877005, N-tert-butyl-2-{N-[(furan-2-yl)methyl]-2-[5-(4-methylphenyl)-2H-1,2,3,4-tetrazol-2-yl]acetamido}-2-(4-hydroxyphenyl) acetamide] | 0.822 | -8.56 | -29.3 ± 1.12 | 20.8 | 0.794 | 0.976 |  | 588000 | 535 ± 80.8 | CC4>CC11>CC6>CC5>CC13>iNOS Peptide 2 | CC4>CC11>CC6>CC5>CC13>Peptide 2 (iNOS) | inhibit the binding of NOSIP with iNOS ligand | 
3 | CCCCN=c1scc(-c2ccc(O)c(C(N)=O)c2)n1N=Cc1cc(Br)c(O)c(OC)c1 [MCULE-8395438746, 5-(3-{[(3-bromo-4-hydroxy-5-methoxyphenyl)methylidene]amino}-2-(butylimino)-2,3-dihydro-1,3-thiazol-4-yl)-2-hydroxybenzamide] | 0.835 | -8.55 | -28.5 ± 0.694 | 20.0 | 0.864 | 0.989 |  | 543000 | 542 ± 54.9 | CC4>CC11>CC6>CC5>CC13>iNOS Peptide 2 | CC4>CC11>CC6>CC5>CC13>Peptide 2 (iNOS) | inhibit the binding of NOSIP with iNOS ligand | 
4 | NS(=O)(=O)c1ccc(CCNC(=O)CCCn2c(SCC(=O)c3ccc(Cl)c(Cl)c3)nc3ccsc3c2=O)cc1 [MCULE-3765839647, 4-(2-{[2-(3,4-dichlorophenyl)-2-oxoethyl]sulfanyl}-4-oxo-3H,4H-thieno[3,2-d]pyrimidin-3-yl)-N-[2-(4-sulfamoylphenyl)ethyl]butanamide] | 0.807 | -7.5 | -27.3 ± 1.11 | 19.8 | 0.989 | 0.956 |  | 704000 | 524 ± 64.9 | CC4>CC11>CC6>CC5>CC13>iNOS Peptide 2 | CC4>CC11>CC6>CC5>CC13>Peptide 2 (iNOS) | inhibit the binding of NOSIP with iNOS ligand | 
5 | recombinant human iNOS oxygenase domain (protein) HMPRHVRIKNWGSGMTFQDTLHHKAKGILTCRSKSCLGSIMTPKSLTRGPRDKPTPPDELLPQAIEFVNQYYGSFKEAKIEEHLARVEAVTKEIETTGTYQLTGDELIFATKQAWRNAPRCIGRIQWSNLQVFDARSCSTAREMFEHICRHVRYSTNNGNIRSAITVFPQRSDGKHDFRVWNAQLIRYAGYQMPDGSIRGDPANVEFTQLCIDLGWKPKYGRFDVVPLVLQANGRDPELFEIPPDLVLEVAMEHPKYEWFRELELKWYALPAVANMLLEVGGLEFPGCPFNGWYMGTEIGVRDFCDVQRYNILEEVGRRMGLETHKLASLWKDQAVVEINIAVLHSFQKQNVTIMDHHSAAESFMKYMQNEYRSRGGCPADWIWLVPPMSGSITPVFHQEMLNYVLSPFYYYQVEAWKTHVWQDEKLE |  |  |  |  |  |  |  |  |  |  |  |  | iNOS enzyme activity (nitrite quantified by Griess reaction, L-Arginine substrate) [2]: recombinant NOSIP inhibits enzyme activity of iNOS

Further lines, with some results ahead:

Row | kon [1] [M⁻¹ s⁻¹] | ΔG (rNOSIP; ITC 25° C.) [kcal/mol] | ΔH (rNOSIP; ITC 25° C.) [kcal/mol] | −TΔS (rNOSIP; ITC 25° C.) [kcal/mol] | N (Sites) (rNOSIP; [4]) | Fold Change (KD) (rNOSIP) | inhibition of iNOS-NOSIP protein interaction by iNOS derived peptides [1] | Kd [1] [nM] | Kd (rNOSIP; [4]) [nM] | Molecule | inhibition hierarchy of iNOS-NOSIP protein interaction [1] | SM binding affinity with NOSIP, hierarchy (rNOSIP) | inhibition of binding of NOSIP with iNOS ligand by small molecules [1] | further results
6 |  |  |  |  |  |  | inhibited |  |  | PP4: iNOS derived peptide, SEQ ID No: 28 (NLQVFDARSCSTAREMFEHICRHVRYSTNNGNI; Human) |  |  |  | inhibition of iNOS-NOSIP protein interaction by iNOS derived peptides ([1]; listed as peptide-4): less efficient in inhibiting interaction between iNOS and NOSIP
7 |  |  |  |  |  |  | inhibited |  |  | PP1: iNOS derived peptide, SEQ ID No: 25 (TGDELIFATKQAWR; Human) |  |  |  | inhibition of iNOS-NOSIP protein interaction by iNOS derived peptides ([1]; listed as Peptide-1): less efficient in inhibiting interaction between iNOS and NOSIP
8 |  |  |  |  |  |  | inhibited |  |  | PP3: iNOS derived peptide, SEQ ID No: 27 (GWKPKYGRFDVVPLVLQANGRDPELFEIPPDLVL; Human) |  |  |  | inhibition of iNOS-NOSIP protein interaction by iNOS derived peptides ([1]; listed as Peptide3): less efficient in inhibiting interaction between iNOS and NOSIP
